We go through one compound from ChEMBL document CHEMBL3856266, “Melodinine V, an antitumor bisindole alkaloid with selective cytotoxicity from Melodinus henryi” (Bioorg Med Chem Lett, 2016).

A word on the IC50: it is the point on the concentration scale where inhibition reaches its midpoint.

The source made the active and inactive calls. No cut-off for these calls is given here.

Data set [1] in a line: Cytotoxicity against human MCF7 cells assessed as reduction in cell viability after 48 hrs by MTT assay. The data set is classed as functional, cell-based. As to conditions: MCF7, 48 h. A general note: Formazan colour is commonly taken as a measure of viable cells.
Data set [2] relates to HT-29. The data set is described as follows: Induction of apoptosis in human HT-29 cells assessed as increase in histone associated DNA fragmentation after 48 hrs by ELISA. The data set is classed as functional, cell-based. A general note: An ELISA detects its analyte on a solid surface through an enzyme-linked reagent.
Data set [3] is described as follows: Cell cycle arrest in human HT-29 cells assessed as accumulation in G1 phase at 9.8 uM after 24 hrs by propidium iodide staining-based flow cytometry. The data set is classed as functional. (Flow cytometry measures light scatter and fluorescence of single cells or particles in a stream.)
The nature of data set [4]: Cytotoxicity against human HS27 cells assessed as reduction in cell viability up to 100 uM after 48 hrs by MTT assay. The note with it: hs27, 48 h. It is filed as toxicity, cell-based.
Data set [5] can be described thus: Cell cycle arrest in human HT-29 cells assessed as accumulation in G1 phase at 7.4 uM after 24 hrs by propidium iodide staining-based flow cytometry. It is filed as functional.
Data set [6] is described as follows: Cytotoxicity against human HT-29 cells assessed as reduction in cell viability after 48 hrs by MTT assay. It is filed as functional, cell-based. The note with it: HT-29, 48 h.
Data set [7] is described as follows: Cytotoxicity against human PANC1 cells assessed as reduction in cell viability after 48 hrs by MTT assay. The data set is classed as functional, cell-based. The note with it: PANC-1, 48 h.
Data set [8] in a line: (§1) Antiproliferative activity against human HT-29 cells after 48 hrs by [methyl-3H]-thymidine incorporation assay. It is filed as functional, cell-based. The note with it: HT-29, 48 h.
The test system of data set [9] is HT-29. The description is as §1. The data set is classed as functional, cell-based.

As for `CC[C@]12CCCN3CCc4c(n(c5ccccc45)[C@@H](c4ccc(O)c5c4N=C4CC[C@]6(CC)CCCN7CC[C@@]45[C@@H]76)C1)[C@@H]32`, the IC50 in [1] turned out to be 54.5 µM; in data set [6], 4.9 µM; in [7], 28.1 µM; in data set [8] it was 2.3 µM. For the same compound, the Activity result with HT-29 [2] is “Dose-dependent effect”; in data set [4], “Non-Toxic”. Further, the outcome in data set [3] and in [5] was Active. Moreover, in the data set with HT-29 [9], the inhibition result was “Dose-dependent effect”.
